Tests used:
[1] = test system: liver-derived HepG2 cells
[2] = test system: influenza A/WS/1933 (H1N1); test: In vitro viral propagation in MDCK cells, read by hemagglutination assay; assay type: cell-based; conditions: in vitro infection
[3] = test system: primary renal proximal tubule epithelial cells (RPTEC)
[4] = test system: influenza A/Puerto Rico/8/34 (H1N1) virus; test: In vitro viral propagation in MDCK cells, read by chicken red blood cell hemagglutination assay; assay type: cell-based; conditions: MDCK cells pre-incubated with compound; supernatants after 18-20 hour incubation
[5] = test system: cell death-activated reporter construct; test: Counter screen using a cell death-activated reporter construct (constitutive gene expression); conditions: for observed toxicity or efficacy in antiviral and counterscreen assays: antiviral reporter assay and counterscreen, tested up to 50 uM
[6] = test system: H3N2 serotype A/Aichi/2/68; test: In vitro viral propagation in MDCK cells, read by hemagglutination assay; assay type: cell-based, influenza A/Aichi/2/68 (H3N2); conditions: in vitro infection
[7] = test system: influenza A/Puerto Rico/8/34; test: In vivo survival study in infected Balb/C mice; conditions: day 7 post-infection, 2×LD50 challenge
Method: In Vivo Survival Studies: Groups of 5 Balb/C mice ([…]) were weighed prior to the start of study and injected intravenously at the base of the tail with formulations containing A0435 at doses of 3.17, 1, or 0 mg/kg in phosphate buffered saline containing 3% w/v mouse serum albumin. Four hours later, these mice were challenged intranasally with 2×LD50 of influenza A/Puerto Rico/8/34 under anesthesia. Identical doses of A0435 were administered 24 and 48 hours after the initial dose administration and animal weights were monitored daily. Surviving animals were defined as those who maintained 70% or more of their starting weight.

influenza A = assay type: cell-based
[8] = target: influenza A RNA-dependent RNA polymerase (RdRP) (Influenza A virus, UniProt P03428+P03431+P03433)

| SMILES | observed toxicity or efficacy in antiviral and counterscreen assays [5] | other results |
| --- | --- | --- |
| CCc1c(C)nc2cc(-c3ccc(OC)c(OC)c3)nn2c1NCCc1ccccn1 [A0435] |  | tolerability in cells [1]: well-tolerated; inhibition of virus [2]: significantly inhibited; tolerability in cells [3]: well-tolerated; concentration showing significant antiviral activity (hemagglutination assay) [4]: > 4 µM; inhibitory impact on the level of constitutive gene expression in the counter-screen assay ([5]; dose titration): no visible inhibitory impact; inhibition of virus [6]: significantly inhibited; animals surviving infection ([7]; 1 mg/kg intravenous): 2/5; animals surviving infection ([7]; 3.17 mg/kg intravenous): 3/5; cytopathic effects in infected cells (influenza A): little to no signs of the cytopathic effects |
| CCc1c(C)nc2cc(-c3ccc(F)cc3)nn2c1NCCc1ccccn1 [A0436, 6-ethyl-2-(4-fluorophenyl)-5-methyl-N-(2-(pyridin-2-yl)ethyl)pyrazolo[1,5-a]pyrimidin-7-amine] | >10 uM (toxic to both antiviral and counterscreen at 50 uM) |  |
| Cc1ccc(-c2cc3nc4c(c(NCCc5ccccn5)n3n2)CCC4)cc1 [A0437, N-(2-(pyridin-2-yl)ethyl)-2-p-tolyl-6,7-dihydro-5H-cyclopenta[d]pyrazolo[1,5-a]pyrimidin-8-amine] | >50 µM (no observed toxicity or efficacy in either assay tested) |  |
| CCc1c(C)nc2cc(-c3ccc(OC)c(OC)c3)nn2c1NCCc1ccc(OC)c(OC)c1 [A0438, N-(3,4-dimethoxyphenethyl)-2-(3,4-dimethoxyphenyl)-6-ethyl-5-methylpyrazolo[1,5-a]pyrimidin-7-amine] | >10 uM (toxic to both antiviral and counterscreen at 50 uM) |  |
| CCc1c(C)nc2cc(-c3ccc(OC)c(OC)c3)nn2c1NCCc1ccccc1C [A0439] |  | concentration showing significant antiviral activity (hemagglutination assay) [4]: > 7.5 µM; toxicity in the reporter assay [8]: increased toxicity at higher doses due to precipitation |
| CCc1c(C)nc2cc(-c3ccc(OC)c(OC)c3)nn2c1NCCc1ccc(F)cc1 [A0440, 2-(3,4-dimethoxyphenyl)-6-ethyl-N-(4-fluorophenethyl)-5-methylpyrazolo[1,5-a]pyrimidin-7-amine] | >50 µM (no observed toxicity or efficacy in either assay tested) |  |
| Fc1ccc(-c2cc3nc4c(c(NCCc5ccccn5)n3n2)CCCC4)cc1 [A0441, 2-(4-fluorophenyl)-N-(2-(pyridin-2-yl)ethyl)-5,6,7,8-tetrahydropyrazolo[5,1-b]quinazolin-9-amine] | >10 uM (toxic to both antiviral and counterscreen at 50 uM) |  |
| Clc1ccc(-c2cc3nc4c(c(NCCc5ccccn5)n3n2)CCCC4)cc1 [A0442, 2-(4-chlorophenyl)-N-(2-(pyridin-2-yl)ethyl)-5,6,7,8-tetrahydropyrazolo[5,1-b]quinazolin-9-amine] | >10 uM (toxic to both antiviral and counterscreen at 50 uM) |  |
| COc1ccc(-c2cc3nc(C)c(C)c(N4CCCC4)n3n2)cc1OC [A0443, 2-(3,4-dimethoxyphenyl)-5,6-dimethyl-7-(pyrrolidin-1-yl)pyrazolo[1,5-a]pyrimidine] | >50 µM (no observed toxicity or efficacy in either assay tested) |  |
| COc1ccc(-c2cc3nc4c(c(NCCc5cccnc5)n3n2)CCC4)cc1OC [A0444, 2-(3,4-dimethoxyphenyl)-N-(2-(pyridin-3-yl)ethyl)-6,7-dihydro-5H-cyclopenta[d]pyrazolo[1,5-a]pyrimidin-8-amine] | >10 uM (toxic to both antiviral and counterscreen at 50 uM) |  |
| CCc1c(C)nc2cc(-c3cc(C)on3)nn2c1NCCc1ccccn1 [A0445, 6-ethyl-5-methyl-2-(5-methylisoxazol-3-yl)-N-(2-(pyridin-2-yl)ethyl)pyrazolo[1,5-a]pyrimidin-7-amine] | >50 µM (no observed toxicity or efficacy in either assay tested) |  |
| COc1cc(OC)cc(-c2cc3nc(C)cc(NCC(C)c4ccccc4)n3n2)c1 (centres unmarked) [A0525, 2-(3,5-dimethoxyphenyl)-5-methyl-N-(2-phenylpropyl)pyrazolo[1,5-a]pyrimidin-7-amine] | >50 µM (no observed toxicity or efficacy in either assay tested) |  |
| CCc1c(C)nc2cc(-c3ccc(OC)c(OC)c3)nn2c1NCc1cc(OC)ccc1OC [A0526, N-(2,5-dimethoxybenzyl)-2-(3,4-dimethoxyphenyl)-6-ethyl-5-methylpyrazolo[1,5-a]pyrimidin-7-amine] | >50 µM (no observed toxicity or efficacy in either assay tested) |  |
| CCc1c(C)nc2cc(-c3cc(OC)cc(OC)c3)nn2c1NCCc1ccccc1 [A0527, 2-(3,5-dimethoxyphenyl)-6-ethyl-5-methyl-N-phenethylpyrazolo[1,5-a]pyrimidin-7-amine] | >50 µM (no observed toxicity or efficacy in either assay tested) |  |
| COc1ccc(-c2cc3nc(-c4ccccc4)cc(NCc4ccccc4C)n3n2)cc1OC [A0528, 2-(3,4-dimethoxyphenyl)-N-(2-methylbenzyl)-5-phenylpyrazolo[1,5-a]pyrimidin-7-amine] | >50 µM (no observed toxicity or efficacy in either assay tested) |  |
| COc1ccc(-c2cc3nc4c(c(NCc5ccccc5F)n3n2)CCCC4)cc1 [A0529, N-(2-fluorobenzyl)-2-(4-methoxyphenyl)-5,6,7,8-tetrahydropyrazolo[5,1-b]quinazolin-9-amine] | >50 µM (no observed toxicity or efficacy in either assay tested) |  |
| COc1ccc(-c2cc3nc(C)cc(NCc4ccc5c(c4)OCO5)n3n2)cc1 [A0530, N-(benzo[d][1,3]dioxol-5-ylmethyl)-2-(4-methoxyphenyl)-5-methylpyrazolo[1,5-a]pyrimidin-7-amine] | >50 µM (no observed toxicity or efficacy in either assay tested) |  |
| Cc1cc(NC(CO)C(O)c2ccccc2)n2nc(-c3cccc(F)c3)cc2n1 (centres unmarked) [A0531, 2-(2-(3-fluorophenyl)-5-methylpyrazolo[1,5-a]pyrimidin-7-ylamino)-1-phenylpropane-1,3-diol] | >50 µM (no observed toxicity or efficacy in either assay tested) |  |
| Cc1cc(NCC(O)c2cccc(O)c2)n2nc(-c3cccc(F)c3)cc2n1 (centres unmarked) [A0532, 3-(2-(2-(3-fluorophenyl)-5-methylpyrazolo[1,5-a]pyrimidin-7-ylamino)-1-hydroxyethyl)phenol] | >50 µM (no observed toxicity or efficacy in either assay tested) |  |
| COc1ccc(-c2cc3nccc(NCc4ccccc4OC)n3n2)cc1 [A0547, N-(2-methoxybenzyl)-2-(4-methoxyphenyl)pyrazolo[1,5-a]pyrimidin-7-amine] | >50 µM (no observed toxicity or efficacy in either assay tested) |  |
| COc1ccc(-c2cc3nc(C)cc(NCc4ccccc4)n3n2)cc1 [A0548, N-benzyl-2-(4-methoxyphenyl)-5-methylpyrazolo[1,5-a]pyrimidin-7-amine] | >50 µM (no observed toxicity or efficacy in either assay tested) |  |
| COc1ccc(-c2c(C)nn3c(NCC(C)c4ccccc4)cc(C)nc23)cc1OC (centres unmarked) [A0549, 3-(3,4-dimethoxyphenyl)-2,5-dimethyl-N-(2-phenylpropyl)pyrazolo[1,5-a]pyrimidin-7-amine] | >50 µM (no observed toxicity or efficacy in either assay tested) |  |
| COc1ccc(-c2c(C)nn3c(N4CCc5ccccc5C4)cc(C)nc23)cc1OC [A0550, 2-(3-(3,4-dimethoxyphenyl)-2,5-dimethylpyrazolo[1,5-a]pyrimidin-7-yl)-1,2,3,4-tetrahydroisoquinoline] | >50 µM (no observed toxicity or efficacy in either assay tested) |  |
| COc1ccc(-c2cc3c(=O)[nH]nc(SCc4ccc5c(c4)OCO5)n3n2)cc1OC [A0551, 7-(benzo[d][1,3]dioxol-5-ylmethylthio)-2-(3,4-dimethoxyphenyl)pyrazolo [1,5-d][1,2,4]triazin-4(5H)-one] | >50 µM (no observed toxicity or efficacy in either assay tested) |  |
| CCOc1ccc(-c2cc3c(SCc4cccc(C)c4)nccn3n2)cc1 [A0552, 2-(4-ethoxyphenyl)-4-(3-methylbenzylthio)pyrazolo [1,5-a]pyrazine] | >50 µM (no observed toxicity or efficacy in either assay tested) |  |
| COc1ccc(-c2cc3c(=O)[nH]nc(SCc4ccccc4Cl)n3n2)cc1OC [A0553, 7-(2-chlorobenzylthio)-2-(3,4-dimethoxyphenyl)pyrazolo [1,5-d][1,2,4]triazin-4(5H)-one] | >50 µM (no observed toxicity or efficacy in either assay tested) |  |
